Measurements published in ChEMBL document CHEMBL1201862, “PubChem BioAssay data set” (2004).
Blank lines part the entries; values can stand above or below the molecule they belong to. Calls of active or inactive are those of the source.

How the values were obtained:
14-3-3 protein gamma = biological target: T1, 14-3-3 protein gamma (Homo sapiens, UniProt P61981); assay: modulators of 14-3-3 gamma client binding – dose response (AID 711); type: functional
T1 sequence (P61981 whole entry): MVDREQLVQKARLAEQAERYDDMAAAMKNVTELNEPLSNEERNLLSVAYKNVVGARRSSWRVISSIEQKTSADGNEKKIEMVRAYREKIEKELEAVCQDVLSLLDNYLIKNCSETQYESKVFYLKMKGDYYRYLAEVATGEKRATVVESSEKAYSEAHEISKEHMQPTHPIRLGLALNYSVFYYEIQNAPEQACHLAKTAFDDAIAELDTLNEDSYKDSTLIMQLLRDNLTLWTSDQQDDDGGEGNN

Prothrombin = Prothrombin (Homo sapiens, UniProt P00734); assay: Thrombin 1536 HTS Dose Response Confirmation. [Related pubchem assays: 1046 (Thrombin 1536 HTS; hits were confirmed in this assay)]; type: functional
[1] = biological target: E3 ubiquitin-protein ligase Mdm2 (Homo sapiens, UniProt Q00987); assay: enhancers of MDM2-luciferase reporter signal, concentration-effect titration, project on inhibitors of MDM2 ubiquitin ligase, cellular assay, luminescent readout, 384-well plate format (AID 1394); type: functional;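 also: MDM2 E3 inhibitors raise luminescence so EC50 is for signal enhancement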
[2] = MC4R antagonists, dose response, counter-screen for LGR2 antagonist project, cell-based, plate reader, cherry pick (AID 743444); type: functional;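 also: transfected HEK 293 cells stimulated with alpha-MSH peptide; potency of inhibitors of the alpha-MSH evoked signal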
[3] = A549 cell cytotoxicity, dose response, cytotoxicity control, plate reader, cherry-pick, antagonist series (AID 743412); type: functional, cell-based
[4] = P. falciparum late gametocyte killing, dose response, luminescence (AID 1117278); type: functional, cell-based;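 also: gametocytes exposed to compound for 24 hours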
BJ [5] = assay: cytotoxicity toward BJ-TERT fibroblasts, dose response, cell-based, RAS-independent, luminescence (AID 1933); type: functional; conditions: Homo sapiens
INS1 = assay: beta cell apoptosis inhibitors, cytokine rescue, dose response, luminescence, retest (AID 449756); type: functional, cell-based; conditions: Rattus norvegicus;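 also: cell death triggered by IL-1 beta plus TNF-alpha plus IFN-gamma mixture; protective hits raise ATP signal compared with cytokine alone wells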
Paired box protein Pax-8 = Paired box protein Pax-8 (Homo sapiens, UniProt Q06710); assay: inhibitors of PAX8-driven TPO luciferase reporter, dose response, RMG-I cells, cherry-pick (AID 687027); type: functional, cell-based;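 also: luciferase reporter driven by Pax8 target thyroperoxidase promoter measured by SteadyGlo luminescence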
BJ [6] = assay: cytotoxicity toward BJ-TERT-LT-ST fibroblasts, dose response, cell-based, RAS-independent, luminescence (AID 1935); type: functional; conditions: Homo sapiens;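 also: BJ fibroblasts immortalized with TERT plus LT and ST oncogenes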
[7] = inhibitors of HIV Env-driven cell fusion, dose response, cherry-pick (AID 652057); type: functional, cell-based
[8] = HEK293 cell cytotoxicity, dose response, cytotoxicity control, plate reader, cherry-picked samples (AID 743446); type: functional, cell-based
[9] = CEM21 lymphoblast cell cytotoxicity, dose response, cytotoxicity control for viral fusion inhibitor project, CellTiter-Glo luminescence, cherry-picked (AID 652042); type: functional, cell-based;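 also: potency for signal decrease meaning cytotoxicity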
[10] = biological target: Heat shock protein HSP 90-alpha (Homo sapiens, UniProt P07900); type: functional, organism-based
[11] = inhibitors of clade B AD8 Env fusion, dose response, cell-based, cherry-pick (AID 652062); type: functional;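 also: luciferase signal from cell-cell fusion driven by HIV-1 clade B AD8 Env; potency is for inhibitors of fusion seen as a drop in luminescence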
[12] = HepG2 cell cytotoxicity, dose response, cytotoxicity control, plate reader, cherry-pick, antagonist series (AID 743416); type: functional, cell-based
[13] = non-specific cell cytotoxicity, dose response, cytotoxicity control for PAX8 inhibitor project, plate reader, dry powder samples (AID 743021); type: functional, cell-based
[14] = LGR2 antagonists, dose response, cell-based, HEK293, CRE-luciferase reporter, cherry pick, set 2 (AID 743343); type: functional;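 also: transfected cells were stimulated with diluted bursicon conditioned medium after compound addition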
BJ [15] = assay: cells; type: functional, cell-based; conditions: Homo sapiens
[16] = ZM109 Env clade C HIV-1 fusion inhibitors, dose response, HeLa effector, CEM target cells, luciferase, cherry-pick (AID 652058); type: functional, cell-based
[17] = Jurkat T cell cytotoxicity, dose response, cytotoxicity control for P. falciparum gametocyte viability project, luminescence (AID 1117277); type: functional, cell-based;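 also: potency reflects loss of cellular ATP meaning fewer viable cells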
[18] = off-target signal loss in HeLa-CEM21 co-culture – HeLa F-luc CTL cells, cherry-picked, counter-screen for HIV-1 Env fusion inhibitor project, dose response (AID 652040); type: functional, cell-based;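 also: potency for signal decrease marking cytotoxic or nonspecific inhibition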
[19] = cytotoxicity toward DRD oncogenic fibroblasts, dose response, cell-based, non-viral oncogenic, luminescence (AID 1934); type: functional; conditions: Homo sapiens
[20] = biological target: T2, Heat shock factor protein 1 (Mus musculus, UniProt P38532); assay: inhibition of MG132-induced HSE-luciferase signal, confirmation, cell-based, NIH3T3, luminescence, dose retest (AID 2382); type: functional;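 also: NIH3T3 fibroblasts with HSF1-driven luciferase reporter stressed by proteasome inhibitor MG132; luminescence from HSF1-driven luciferase expression after 8 hours of MG132 stress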
T2 sequence (P38532 whole entry): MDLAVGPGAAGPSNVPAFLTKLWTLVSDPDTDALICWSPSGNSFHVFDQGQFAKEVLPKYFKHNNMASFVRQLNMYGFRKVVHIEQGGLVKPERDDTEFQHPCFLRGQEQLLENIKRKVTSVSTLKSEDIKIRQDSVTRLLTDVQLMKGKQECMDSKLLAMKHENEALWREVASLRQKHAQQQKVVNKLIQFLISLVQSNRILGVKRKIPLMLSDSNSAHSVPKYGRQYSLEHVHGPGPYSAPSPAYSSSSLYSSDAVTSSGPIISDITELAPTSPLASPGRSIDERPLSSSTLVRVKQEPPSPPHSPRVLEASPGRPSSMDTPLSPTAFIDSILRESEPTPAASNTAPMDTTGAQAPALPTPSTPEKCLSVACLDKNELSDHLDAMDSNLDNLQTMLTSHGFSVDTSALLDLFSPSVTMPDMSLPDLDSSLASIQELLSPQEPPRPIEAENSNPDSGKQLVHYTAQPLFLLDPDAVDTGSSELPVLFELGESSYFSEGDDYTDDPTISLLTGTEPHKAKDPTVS

Sequence of E3 ubiquitin-protein ligase Mdm2 (Q00987 whole entry): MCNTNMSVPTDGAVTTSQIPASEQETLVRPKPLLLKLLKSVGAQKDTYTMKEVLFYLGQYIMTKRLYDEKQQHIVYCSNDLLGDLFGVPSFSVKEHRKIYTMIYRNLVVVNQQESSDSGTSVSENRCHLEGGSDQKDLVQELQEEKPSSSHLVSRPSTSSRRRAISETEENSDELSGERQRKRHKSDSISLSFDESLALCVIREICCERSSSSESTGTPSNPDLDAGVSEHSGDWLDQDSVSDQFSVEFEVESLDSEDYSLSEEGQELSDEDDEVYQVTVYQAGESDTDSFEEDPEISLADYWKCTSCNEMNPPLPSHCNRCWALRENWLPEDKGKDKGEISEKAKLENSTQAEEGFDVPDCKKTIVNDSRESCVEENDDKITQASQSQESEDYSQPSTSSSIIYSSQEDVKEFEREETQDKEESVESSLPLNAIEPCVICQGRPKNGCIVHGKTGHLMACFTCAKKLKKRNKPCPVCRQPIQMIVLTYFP
Sequence of Paired box protein Pax-8 (Q06710 whole entry): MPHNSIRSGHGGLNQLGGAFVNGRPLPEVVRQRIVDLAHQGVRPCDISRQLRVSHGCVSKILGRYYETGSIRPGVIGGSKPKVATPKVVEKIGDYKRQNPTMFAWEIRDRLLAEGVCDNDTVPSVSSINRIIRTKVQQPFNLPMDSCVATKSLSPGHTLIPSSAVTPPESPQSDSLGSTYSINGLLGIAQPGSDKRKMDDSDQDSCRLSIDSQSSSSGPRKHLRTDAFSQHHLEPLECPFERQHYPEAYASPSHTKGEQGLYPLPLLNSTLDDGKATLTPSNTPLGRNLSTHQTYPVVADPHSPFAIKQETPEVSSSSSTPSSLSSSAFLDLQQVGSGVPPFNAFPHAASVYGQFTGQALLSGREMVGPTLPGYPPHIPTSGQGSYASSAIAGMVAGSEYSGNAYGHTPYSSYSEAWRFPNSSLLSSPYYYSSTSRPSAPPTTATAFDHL

Structure (SMILES): Cc1ccccc1CS(=O)(=O)Cc1ccc(C(=O)NCc2ccccn2)o1
- IC50 (14-3-3 protein gamma): 50000 nM (not active)

Structure (SMILES): Cc1nn(-c2nc3ccccc3[nH]2)c(=O)c2ccccc12
- AC50 [2]: 352 nM (active)
- AC50 [3]: 2040 nM (active)
- IC50 [4]: 8600 nM (active)
- EC50 (BJ [5]): 1060 nM (active)
- AC50 (INS1): 1300 nM (active)
- AC50 (Paired box protein Pax-8): 1540 nM (active)
- EC50 (BJ [6]): 3500 nM (active)
- AC50 [7]: 534 nM (active)
- AC50 [8]: 2330 nM (active)
- AC50 [9]: 2080 nM (active)
- AC50 [10]: 4970 nM (active)
- AC50 [11]: 1460 nM (active)
- AC50 [12]: 14800 nM (active)
- AC50 [13]: 1720 nM (active)
- AC50 [14]: 352 nM (active)
- EC50 (BJ [15]): 1040 nM (active)
- AC50 [16]: 5840 nM (active)
- IC50 [17]: 2410 nM (active)
- AC50 [18]: 1360 nM (active)
- EC50 [19]: 1010 nM (active)

Structure (SMILES): COc1cc2nc(CN(C)Cc3ccc(F)cc3)nc(O)c2cc1OC
- IC50 [4]: > 109000 nM (inactive)
- IC50 [17]: > 83200 nM (inactive)

Structure (SMILES): CN(C)c1nc(OCCNC(=O)COc2ccc(Cl)cc2Cl)nc(N(C)C)n1
- IC50 [4]: > 109000 nM (inactive)
- EC50 [20]: > 195000 nM (not active)
- IC50 [17]: > 83300 nM (inactive)

Other lines, results leading:

- IC50 (Prothrombin): 15100 nM (active)
Structure (SMILES): COc1ccc(C(=O)n2ncc(C#N)c2N)cc1

- EC50 [1]: 16100 nM (not active)
Structure (SMILES): CCCN(CCC)CCNc1c(NC2CCN(C(=O)OCC)CC2)c(=O)c1=O

- IC50 (Prothrombin): > 50000 nM (not active)
Structure (SMILES): COc1ccc(N2C(S)=NC(=Nc3ccccc3)C23CCCCC3)cc1
